Patent US10723716B2, “Alpha-helix mimetics as modulators of Abeta self-assembly” (New York University, priority 2016, dated 2020)
Entries after “also recorded” stand apart in the source; their conditions may differ.

Assays:
[1] = molecular target: T1, Aβ40 (Homo sapiens, UniProt P05067); assay: ThT-based kinetic assay of Aβ40 aggregation; format: biochemical; settings: equimolar ratio
T1 construct: Cleavage of APP results in several Aβ isoforms; The predominant species are Aβ42 and Aβ40; purchased Anaspec (Fremont, Calif., USA)
T1 sequence (P05067 672-711 limits assumed): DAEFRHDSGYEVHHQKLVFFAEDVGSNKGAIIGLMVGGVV
Procedure: Kinetic assays were conducted on a FlexStation 3 Multi-Mode Microplate reader from Molecular Devices (Sunnyvale, Calif., USA). Experiments were conducted in triplicate in a 96-well plate with a final volume of 200 μL per well. Every measurement was an average of 50 readings. The aggregation of an amyloidogenic peptide (Aβ40, Aβ42, or IAPP) was initiated by the addition of the peptide from a stock solution (in DMSO, 0.5-1 mM) to phosphate buffer. The final concentration of each peptide was different based on their aggregation. The stoichiometry of ThT dye for each peptide was 0.5:1 (ThT:peptide). Peptide aggregation was monitored by ThT fluorescence (λex=445 nm and λem=485 nm). The blank sample contained all the components of the peptide samples except the peptide. The sample data were processed by subtracting the fluorescence of the blank sample. The fluorescence intensity data was then normalized by setting the maximum value to 1.
Kinetic assays in the presence of the compounds of the invention were conducted under the same conditions. The small molecules were added from a stock solution (1 mM or 10 mM in DMSO) to keep the final concentration of DMSO less than 1.0% (v/v). […]
Kinetic profiles were processed using Origin (version 9.1). […] Each run was fit independently to extract the t50 (time required to reach 50% of the maximum fluorescence intensity). […]

[2] = molecular target: T1, Aβ40; assay: Transmission electron microscopy (TEM) of Aβ40; format: biochemical
[3] = molecular target: T2, Aβ42 (Homo sapiens, UniProt P05067); assay: Dynamic light scattering of Aβ42 species; format: biochemical
T2 construct: Cleavage of APP results in several Aβ isoforms; The predominant species are Aβ42 and Aβ40; purchased Anaspec (Fremont, Calif., USA)
T2 sequence (P05067 672-713 limits assumed): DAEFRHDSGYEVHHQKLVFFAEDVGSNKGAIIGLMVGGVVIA
Procedure: The particle size distribution of 5 μM Aβ42 increased from a range of hydrodynamic radii of 40-80 nm to 100-500 nm after incubation for 24 h (FIG. 4a).

[4] = DLS and UV-Vis probe of colloidal aggregation of the compound; format: physicochemical
Procedure: UV-Vis was employed to probe the chemical aggregation of ADH-41 under kinetic assay conditions. The measurements were carried out on a double beam Carry 100 Bio spectrophotometer (Agilent Technologies, Santa Clara, Calif.) controlled by Cary WinUV software (version=3.0).
Dynamic light scattering (DLS) and ultraviolet-visible (UV-Vis) spectroscopy was employed to probe the micelle forming capacity of ADH-41.

[5] = molecular target: T2, Aβ42; assay: PICUP SDS-PAGE of Aβ42 oligomers; format: biochemical; settings: 5 μM Aβ42, equimolar ratio
Procedure: The reaction mixture was irradiated for 30 s using filament lamp (power=150 W) by keeping it 20 cm away from the bottom of the reaction tubes. The cross-linking reaction was then quenched immediately with dithiothreitol (1 M, 1 μL, Sigma Aldrich, St. Louis, Mo., USA). The samples were incubated on ice for 15 min. followed by the addition of SDS buffer. The samples were heated at 90° C. for 5 min. and then centrifuged. […] The samples were applied to Nu-PAGE electrophoresis in 12% Bis-Tris gels with SDS-PAGE buffer. The protein samples were stained with a silver stain kit from Sigma Aldrich (St. Louis, Mo., USA).

[6] = molecular target: T1, Aβ40; assay: Isothermal titration calorimetry (ITC); format: binding
Procedure: ITC experiments were performed in a NANO-ITC (TA instruments, New Castle, Del., USA). […] The heat associated with each injection was calculated by integrating each heat burst curve using NanoAnalyze software (New Castle, Del., USA). […] No parameter was constrained during the fitting. The data were extracted from the best fit after 10,000 iterations.

[7] = molecular target: T3, Nα-amino-terminal fluorescein-labeled Aβ40 (Homo sapiens, UniProt P05067); assay: Fluorescence titration; settings: 20 mM NaPi, 1% TFE, pH 7.4; read-out: apparent binding affinity (app. Kd)
T3 construct: fluorescein-labeled Aβ40 was purchased from Anaspec (Fremont, Calif., USA); purchased Anaspec (Fremont, Calif., USA)
T3 sequence (P05067 672-711 limits assumed): as the sequence (P05067 672-711 limits assumed) above
Procedure: N^α-amino-terminal fluorescein-labeled Aβ40 was purchased from Anaspec (Fremont, Calif., USA) and used without further purification. To ensure the monomeric state of N^α-amino-terminal fluorescein-labeled Aβ40, the peptide was treated similar to other peptides and stored at −80° C. in the dark until use. Fluorescence measurements were performed on a FlexStation 3 Multi-Mode Microplate reader from Molecular Devices (Sunnyvale, Calif., USA). Fluorescence titrations were conducted in triplicate in a 96-well plate with a final well volume of 200 μL. For fluorescence measurements, the fluorescein dye was excited at 492 nm and the spectra were recorded from 500 nm to 600 nm. […] The plot was fitted using a sigmoidal fit to extract the apparent binding affinity.

[8] = system: N2a cells; assay: Confocal fluorescence microscopy, cellular uptake; format: cell-based, mouse; settings: 24 h incubation
Procedure: N2a cells were seeded at a density of 5×10^4 cells/well in 500 μL complete medium in 4-chambered 35 mm glass bottom Cellview cell culture dishes (Greiner Bio-One, Monroe, N.C., USA). […] For mitochondrial colocalization experiments, 50 nM MitoTracker Red FM or MitoTracker Green FM (Thermo Fisher Scientific, Waltham, Mass., USA) was added to the chambers and incubated for 15 min. Thereafter, the medium was removed, the cells were washed with PBS to remove any extracellular peptide, inhibitor or organelle marker, and 300 μL phenol red- and serum-free medium was added to each chambers of the cell culture dish. Imaging was done on an Olympus Fluoview FV1000MPE Confocal/2—Photon microscope, using a 63× Plan-Apo/1.3 NA oil immersion objective with DIC capability. Image processing was done using the Fiji image processing software according to known methodology (Schindelin, J.; Arganda-Carreras, I.; Frise, E.; Kaynig, V.; Longair, M.; Pietzsch, T.; Preibisch, S.; Rueden, C.; Saalfeld, S.; Schmid, B.; Tinevez, J. Y.; White, D. J.; Hartenstein, V.; Eliceiri, K.; Tomancak, P.; Cardona, A. Nat. Methods 2012, 9, 676-682).

## COC(=O)c1ccc(NC(=O)c2ccc(NC(=O)c3ccc([N+](=O)[O-])c(OCc4ccccc4)n3)c(OCCCN)n2)c(OCCCN)n1 [ADH-41]
[1]
  effect on Aβ40 aggregation (ThT): decreased significantly; also recorded: completely arrested
[2]; Aβ40 incubated with ADH-41, after 5 days
  fiber formation of Aβ40 seen by TEM: scant evidence of fiber formation
[2]; equimolar ratio
  aggregates of Aβ40 seen by TEM: No aggregates were visible
[2]; substoichiometric ratio 1:0.1 (Aβ40:ADH-41)
  Aβ40 species seen by TEM: short protofibrils
[3]; 5 μM Aβ42, equimolar ratio, 24 h incubation
  hydrodynamic radii of Aβ42 particles: 50-100 nm
[3]; after 3 days
  change in particle size of Aβ42-ADH-41 complex: No change
[4]; absorbance at 351 nm, phosphate buffer pH 7.4
  concentration range over which absorbance is linear: 10 to 100 µM
[4]; phosphate buffer (150 mM KCl, 50 mM NaPi, pH 7.4), 20° C.
  diameter (from volume) of compound particles by DLS: below 10 nm
[5]; 24 h and 36 h
  higher order oligomers of Aβ42 (PICUP, SDS-PAGE): sparse populations
[5]; up to 12 h
  higher order oligomers of Aβ42 (PICUP, SDS-PAGE): no higher order oligomers
[6]
  Kd: 0.7 ± 0.1 µM
[7]
  Kd: 1.4 ± 0.2 µM
[8]
  cell permeability: good cell permeability
